Assay results taken from patent US20180008569A1, “PROSTAGLANDIN TRANSPORTER INHIBITORS FOR INHIBITING OVULATION” (TEL HASHOMER MEDICAL RESEARCH INFRASTRUCTURE AND SERVICES …, priority 2015, published 2018).
Marks after values point to notes of the source that are not given here.

Legend:
PGT transcripts in MGCs = assay: PGT transcripts (qPCR) in cultured FSH-pretreated human mural granulosa cells; conditions: for FSK-induced upregulation of PGT expression: then FSK 10 μM 24 hours; for hCG-induced upregulation of PGT expression: then hCG 1U/ml 24 hours
Procedure: FSH-pretreated MGCs were then exposed to vehicle (PBS) or AREG for 24 hours. PGT was quantified by qPCR and normalized to/3-actin expression. Data represent the mean±SEM of three independent experiments.

PGT [1] = molecular target: T1, PGT (Mus musculus, UniProt Q9EPT5); assay: Ovulated oocyte count in PMSG-primed/hCG-triggered immature female mice; type: in vivo; design: from tissue; host or cells: whole animal: PMSG-primed/hCG-triggered immature female mice (ovary)
T1 sequence (Q9EPT5 whole entry): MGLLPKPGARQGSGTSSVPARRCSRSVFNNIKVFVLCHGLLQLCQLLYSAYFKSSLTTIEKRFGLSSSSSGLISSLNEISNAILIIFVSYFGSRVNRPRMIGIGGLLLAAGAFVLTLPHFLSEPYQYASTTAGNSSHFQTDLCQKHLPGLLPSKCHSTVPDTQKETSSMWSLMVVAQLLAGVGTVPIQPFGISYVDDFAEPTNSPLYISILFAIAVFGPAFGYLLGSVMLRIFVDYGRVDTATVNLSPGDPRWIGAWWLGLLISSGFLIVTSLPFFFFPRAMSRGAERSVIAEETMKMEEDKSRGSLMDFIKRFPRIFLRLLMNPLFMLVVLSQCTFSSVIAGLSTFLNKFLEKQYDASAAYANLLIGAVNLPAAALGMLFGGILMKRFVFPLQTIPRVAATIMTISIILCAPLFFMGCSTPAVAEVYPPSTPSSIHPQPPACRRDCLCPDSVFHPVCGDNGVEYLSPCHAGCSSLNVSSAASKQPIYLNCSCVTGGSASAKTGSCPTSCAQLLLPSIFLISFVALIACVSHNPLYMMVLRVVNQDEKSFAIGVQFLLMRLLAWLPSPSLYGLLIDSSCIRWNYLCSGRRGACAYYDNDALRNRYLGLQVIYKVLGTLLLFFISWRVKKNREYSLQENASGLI

PGT [2] = molecular target: T1, PGT; assay: Ovarian morphology (histology) in superovulated mice
PGT [3] = molecular target: PGT (Homo sapiens, UniProt Q92959); assay: PGE2 concentration in media of MGCs by enzyme immunoassay (EIA); type: cell-based; design: basal media concentration of PGE2: dose or concentration left out as unconfirmed
Procedure: The concentration of PGE2 in the media was then measured by an enzyme immunoassay (EIA).

[4] = test system: whole ovarian PGT transcripts; assay: Whole ovarian PGT transcripts in PMSG-primed/hCG-triggered immature mouse superovulation model; type: in vivo; conditions: PMSG for 48 hours
[5] = Serum progesterone levels (corpus luteum function) in PMSG-primed/hCG-triggered mice; type: in vivo; conditions: concurrent treatment with DIDS, 24 hours post-hCG
Procedure: In order to assess corpus luteum function, serum progesterone levels were measured in PMSG-primed/hCG-triggered mice in the absence or presence of DIDS.

[6] = test system: PGE2 downstream target genes; assay: Ovarian expression of ovulatory cascade, PG receptor and PG metabolism genes by qPCR in PMSG-primed/hCG+DIDS-treated mice; type: in vivo
Procedure: To characterize the ovulation-blocking effect of PGT at the molecular level, the effect of DIDS on the LH/CGR dependent activities was evaluated. Key representative genes of the ovulatory cascade were studied, including, oocyte maturation genes: amphiregulin (AREG), epiregulin (EREG), progesterone receptor (PR); cumulus expansion genes: tumor necrosis factor alpha-induced protein (TNFAIP6); follicular rupture related genes: disintegrin and metalloproteinase with thrombospondin motifs 1 (ADAMTS1), cathepsin L (CTSL); the ovulatory related genes: follicle stimulating hormone receptor (FSHR) and luteinizing hormone/chorionic gonadotropin receptor (LHCGR); and steroidogenesis related genes: steroidogenic acute regulatory protein (StAR) and cholesterol side cleavage chain (p450SCC). After total RNA was extracted from the ovaries of PMSG-primed/hCG+DIDS-treated mice and converted to cDNA, the expression of genes of interest was quantified by qPCR.

PGT [7] = molecular target: T1, PGT; assay: Oocyte maturation and cumulus expansion in vivo in mice; design: from tissue; host or cells: whole animal: PMSG-primed/hCG-triggered immature female mice (ovary)
From the text: Ovulated COCs from hCG-treated mice were collected from the ampulla of the oviduct.

EP4 receptor = EP4 receptor mRNA expression in FSH-pretreated MGCs; type: cell-based, human; conditions: 10 μM PGE2, 24 hours
EP receptor = assay: Intracellular cAMP in MGCs after PGE2 pretreatment (EP receptor desensitization); type: cell-based, human; conditions: pretreated with 10 μM PGE2 10 min, washed, 10 μM PGE2 additional 10 min
Procedure: Inhibition of PGT activity or the provision of excess PGE2 results in the desensitization of the prostaglandin receptors […] and EP4 and thereby in a reduction in PGE2 signaling. An important second messenger for PGE2 is intracellular cAMP resulting from activation of either EP2 or EP4 receptor by PGE2. Thus, the hypothesis that excess PGE2 results in reduced PG signaling in human granulosa cells was tested. MGCs were incubated with 10 μM PGE2 for 10 min or pretreated with 10 μM PGE2 for 10 min, washed and then treated with 10 μM PGE2 for additional 10 min cAMP levels were measured in the cell lysate and was normalized to total protein content.

[8] = Homo sapiens, read-out: increase in PGT transcripts (fold induction)

Q: Which fold induction at 0.02 µM (PGT transcripts in MGCs; [8]) does the source give for `CCCCCCCCCCCCCC(=O)O[C@@H]1[C@@H](C)[C@@]2(O)[C@@H](C=C(CO)C[C@]3(O)C(=O)C(C)=C[C@@H]23)[C@@H]2C(C)(C)[C@]12OC(C)=O` [PMA, phorbol myristate acetate] here?
A: 11

Q: With `Cc1c(C2(c3cc(Br)c(O)c(Br)c3C)OS(=O)(=O)c3ccccc32)cc(Br)c(O)c1Br` [BCG, Bromocresol Green] as the molecule, how does the ovulation (PGT [1]; BCG at 500 and 350 mg/kg with hCG, 16 hours) read?
A: complete blockade of ovulation

Q: And the “No. ova/ovulating mice (Mean ± SEM)” value (PGT [1]; hCG + BCG 250 mg/kg, 16 hours)?
A: 58.4 ± 7.4

Q: What about the “Range of oocytes in ovulating mice” value (PGT [1]; hCG + BCG 250 mg/kg, 16 hours) of the same molecule?
A: 12-61

Q: And the “No. ova/ovulating mice (Mean ± SEM)” value (PGT [1]; hCG + BCG 300 mg/kg, 16 hours)?
A: 1.3*

Q: And the “Range of oocytes in ovulating mice” value (PGT [1]; hCG + BCG 300 mg/kg, 16 hours)?
A: 1-2

Q: What about the “No. ova/ovulating mice (Mean ± SEM)” value (PGT [1]; hCG + BCG 350 mg/kg, 16 hours) of the same molecule?
A: 0*

Q: What about the “No. ova/ovulating mice (Mean ± SEM)” value (PGT [1]; hCG + BCG 500 mg/kg, 16 hours) of the same molecule?
A: 0*

Q: What about the ovarian morphology (PGT [2]; hCG+BCG 350 mg/kg, 16 hours after hCG) of the same molecule?
A: un-ruptured follicles with entrapped oocytes

Q: And the “increase in the media concentration of PGE2 relative to controls” value (PGT [3]; co-treatment hCG 1U/ml + BCG 50 mM, 24 hours)?
A: ~3 fold

Q: And the “basal media concentration of PGE2” value (PGT [3]; no hCG)?
A: without effect

Q: Which “FSK-induced upregulation of PGT expression” value (PGT transcripts in MGCs; pretreatment 10 μM for 1 hour) does the source give for `N#CC(=C(/N)Sc1ccccc1N)/C(C#N)=C(\N)Sc1ccccc1N` [U0126] here?
A: markedly inhibited

Q: What about the “PMA-mediated upregulation of PGT transcripts” value (PGT transcripts in MGCs; pretreatment 10 μM for 1 hour, then PMA 20 nM 24 hours) of the same molecule?
A: markedly inhibited

Q: What about the “hCG-induced upregulation of PGT expression” value (PGT transcripts in MGCs; pretreatment 10 μM for 1 hour) of the same molecule?
A: effectively abolished

Q: With Pregnant mare serum gonadotropin [PMSG] as the molecule, how does the “level of PGT in the ovaries relative to control (saline)” value [4] read?
A: 2.3 folds

Q: For `O=S(=O)(NCCNC/C=C/c1ccc(Br)cc1)c1cccc2cnccc12` [H89], which “FSK-induced upregulation of PGT expression” value (PGT transcripts in MGCs; pretreatment 10 μM for 1 hour) is on record?
A: largely inhibited

Q: And the “hCG-induced upregulation of PGT expression” value (PGT transcripts in MGCs; pretreatment 10 μM for 1 hour)?
A: largely inhibited

Q: Which results are given for `O=S(=O)(O)c1cc(N=C=S)ccc1C=Cc1ccc(N=C=S)cc1S(=O)(=O)O` [DIDS, 4,4′-Diisothiocyanatostilbene-2,2′-disulfonic acid]?
A: ovulated oocyte count (PGT [1]; different concentrations of DIDS at time of hCG, 16 hours): dose-dependent decrements; No. of oocytes in ovulating mice (PGT [1]; hCG + DIDS 5 mg/kg, 16 hours): 7-77; No. ova/ovulating mice (Mean ± SEM) (PGT [1]; hCG + DIDS 5 mg/kg, 16 hours): 53.5 ± 5.1; No. of oocytes in ovulating mice (PGT [1]; hCG + DIDS 10 mg/kg, 16 hours): 10-60; No. ova/ovulating mice (Mean ± SEM) (PGT [1]; hCG + DIDS 10 mg/kg, 16 hours): 27.4 ± 6.8; No. of oocytes in ovulating mice (PGT [1]; hCG + DIDS 20 mg/kg, 16 hours): 1-51; No. ova/ovulating mice (Mean ± SEM) (PGT [1]; hCG + DIDS 20 mg/kg, 16 hours): 22 ± 6.8; No. ova/ovulating mice (Mean ± SEM) (PGT [1]; hCG + DIDS 50 mg/kg, 16 hours): 9; inhibition at 50 mg/kg (PGT [1]; mouse, read-out: inhibition of ovulation): 95.5%; ovarian morphology (PGT [2]; hCG+DIDS, 16 hours after hCG): numerous unruptured preovulatory follicles with entrapped oocytes; ovarian morphology (PGT [2]; hCG+DIDS, forty hours after hCG injection): still contained entrapped oocytes in preovulatory follicles; serum progesterone levels [5]: significant reduction; PGDH expression ([6]; addition of DIDS): not affected; downregulation of EP2 by hCG ([6]; addition of DIDS): abolished; reduction of FSHR mRNA in response to hCG ([6]; addition of DIDS): abolished; upregulation by hCG of COX-2 ([6]; addition of DIDS): inhibited; upregulation by hCG of EP4 ([6]; addition of DIDS): inhibited; upregulation by hCG of PGT ([6]; addition of DIDS): inhibited; expression of most of the ovulation related transcripts studied (except p450SCC and LHCGR) ([6]; ovaries of PMSG-primed/hCG+DIDS-treated mice): profound inhibition; cumulus state of COCs (PGT [7]; DIDS, 24 hours following treatment with hCG): compact cumulus; oocytes at GV (PGT [7]; hCG + DIDS): 100% (102/102); oocytes at MI (PGT [7]; hCG + DIDS): 0% (0/102); oocytes at MII (PGT [7]; hCG + DIDS): 0% (0/102); cumulus state of COCs (PGT [7]; hCG and DIDS 50 mg/kg): compact cumulus; oocyte maturation stage (PGT [7]; hCG+DIDS-treated mice): immature and at the GV stage; cumuli of recovered cumulus-oocyte-complexes (PGT [7]; lower doses of DIDS): expanded normal-appearing cumuli; denuded oocytes from recovered cumulus-oocyte-complexes (PGT [7]; lower doses of DIDS): morphologically normal, mature (M2)

Q: With `CCCCC[C@H](O)/C=C/[C@H]1[C@H](O)CC(=O)[C@@H]1C/C=C\CCCC(=O)O` [PGE2, Prostaglandin E2] as the molecule, how does the “EP4 receptor mRNA expression compared to controls” value (EP4 receptor) read?
A: significant downregulation

Q: And the “intracellular cAMP in response to further PGE2 stimulation” value (EP receptor)?
A: significantly reduced accumulation of intracellular cAMP

Q: With `C=C[C@@]1(C)CC(=O)[C@]2(O)[C@@]3(C)[C@@H](O)CCC(C)(C)[C@@H]3[C@H](O)[C@H](OC(C)=O)[C@@]2(C)O1` [FSK, forskolin] as the molecule, how does the fold induction at 10 µM (PGT transcripts in MGCs; [8]) read?
A: 25

B1: amphiregulin (protein, UniProt P31955 100-248, looked up)
Amphiregulin: VIKPKKNKTEGEKSTEKPKRKKKGGKNGKGRRNKKKKNPCTAKFQNFCIHGECRYIENLEVVTCNCHQDYFGERCGEKSMKTHSEDDKDLSKIAVVAVTIFVSAIILAAIGIGIVITVHLWKRYFREYEGETEERRRLRQENGTVHAIA
Q: For B1, which “induction of PGT expression” value (PGT transcripts in MGCs; FSH-pretreated MGCs exposed to AREG for 24 hours, vs vehicle (PBS)) is on record?
A: 3 fold
